From patent US8946507B2, “Method of selectively producing male or female sterile plants” (priority 2002, dated 2015)

Columns and labels:
[1] = tested on: Nicotiana tabacum var. Samsun (transgenic, D-amino acid oxidase under female floral promoter); experiment: Conditional female sterility of transgenic tobacco expressing D-amino acid oxidase in female floral tissue, treated with D-amino acids; format: in vivo; details: for seed production after treatment: foliar spray usually 0.25-20 kg/ha, root drench or 10-200 mM solution into buds, prior to or during early flower formation; for viable pollen production after treatment: same treatment conditions as for seed production
Protocol: Tobacco leaf discs are transformed with the recombinant binary vectors using methods similar to those described in Horsch et al (1985) Science, 227, 1229-1231 Many variations of the method may be used. The binary vector can be transformed into, for example, Agrobacterium tumefaciens strain LBA 4404 using the freeze thaw method of transformation. Tobacco transformation and whole plant regeneration is performed using Nicotiana tabacum var. Samsun according to protocols described by Draper et al (Plant Genetic Transformation, Blackwell Sci. Pub. 1989). Transformation events are selected on MS-media containing kanamycin or other suitable antibiotic. The presence of integrated transgenes is confirmed by PCR. Plants are regenerated and allowed to reach maturity and selfed on to produce seed. Northern and/or Western analysis is used to confirm tissue-specific expression of the D-amino acid oxidase genes. […] Seeds of the T1 generation are planted out. Once plantlets have grown to a sufficient size they are tested by PCR for the presence of transgene. PCR positive plants are transferred to the greenhouse. […] A subset of these (putatively) conditionally sterile plants are treated with D-phosphinothricin or D-alanine or D leucine or D asparagine or D methionine or D-aspartate or D-glutamate in various amounts and at varying growth stages. […] For example these amino acids are pure D enantiomers or, alternatively, are DL racemates. For example, they are applied as a foliar spray, prior to or during the early stages of flower formation, at rates usually between 0.25 and 20 kg/ha. Amino acids which may crystallise out of solution on the leaves following foliar application may be redissolved and remobilised for leaf uptake by further applications of water as a spray mist. Amino acids are, for example, also applied as a root drench and optionally, further applied as ˜50 ul of a 10-200 mM solution flooded directly into the buds of emerging florets. Pollen from the treated plants is collected and viability is tested. […] Control plants are both transgenic and non-transgenic and are grown under identical conditions and under an identical regime of physical treatments except that treatment solutions are either water or an equivalent concentration of pure L-amino acid.

[2] = tested on: mutant forms of R. gracilis D amino acid oxidase; experiment: Oxygen electrode assay, control experiments with pure enantiomers; format: biochemical, Rhodotorula gracilis; details: rate relative to DL phosphinothricin, depending on concentration
Protocol: Approximately 7 g wet weight of cells is washed in water. The cells are resuspended in an equal volume of 50 mM/Mops/KOH buffer at pH 7.0 containing 2 mM EDTA, 2 mM DTT and 0.01 mM FAD. Cells are evenly suspended using a glass homogeniser and then disrupted using a one shot head in the Constant Systems (BudBrooke Rd, Warwick U.K.) Basic Z cell disrupter at 13500 psi. The crude extract is kept cold (˜4° C.) centrifuged at 30,000 gav for 1 h and the pellet discarded. Some of the extract protein is run out on an SDS PAGE gel stained with Coomassie Blue and, through side by side comparison with similarly prepared extracts of cells containing only ‘empty’ pET vector it is estimated that 2-50% of the total soluble protein in the extract is D-amino acid oxidase. Some of the extract protein is exchanged into 50 mM Mops/KOH buffer at pH 7.0 containing 0.01 mM FAD. This is diluted with the same buffer in a standard oxygen electrode cell (calibrated at 25° C. between zero and a saturated concentration of oxygen). Optionally, the D-amino acid oxiadse is further purified using ion-exchange, phenyl sepharose, fractional ammonium sulphate precipitation and gel filtration. Assays, at 25° C., are started by addition of a 200 mM solution of the ammonium salt of DL phosphinothricin to the diluted enzyme. […] Rates of oxygen consumption (after substraction of any drift in the bases line) are measured. […]

[3] = tested on: wheat containing a PAT gene under barley plastocyanin promoter region; experiment: Reproductive tolerance of wheat containing PAT gene under barley plastocyanin promoter to DL phosphinothricin; format: in vivo; details: rates up of at least 2 kg/ha
Text: The current invention provides a method of overcoming the problem of enabling the use of a cheap commercial herbicide, DL phosphinothricin, as both weed control and hybridising agent in the production of hybrid cereals and which method, furthermore, provides resultant hybrid cereals or rice in which DL phosphinothricin (or L phosphinothricin) can be safely used for weed control without substantial loss of yield. As a yet further benefit, selfed seed from the F1 generation which may later arise as volunteers in subsequent crops will be easier to manage since they, themselves, will generally be sterile if sprayed with controlling amounts of DL phosphinothricin. The same will hold for the progeny of pollen outcrossing from the F1 plants to weeds (e.g. red rice) or other cereals. The current invention provides genes and enzymes that convert a non-phytotoxic component, D-phosphinothricin, of a commercial herbicide formulation DL phosphinothricin, into the active L form. The PAT gene which converts L-phosphinothricin to N-acetyl L-phosphinithricin is known already and is used commercially to provide tolerance to DL phosphinothricin in crops. […]

[4] = tested on: tobacco plants (transgenic, TA 29 D-amino acid oxidase and plastocyanin/PAT); experiment: Transgenic tobacco (TA 29 D-amino acid oxidase plus plastocyanin promoter PAT) sprayed with DL phosphinothricin; format: in vivo; details: spray, rates between 250 g/ha and 5 kg/ha
Text: Analagous to example 1, in one variant of the example, the amino acid applied is racemic DL phosphinothricin. In this case the DNA construct used for transformation comprises, in addition to the DNA sequence encoding a D-amino acid oxidase under operable expression control of a tissue specific male floral promoter region such as ‘TA 29’, also a DNA sequence encoding a phosphinothricin N-acetyl transferase gene such as the ‘PAT’ gene under operable control of a promoter region such as that from the plastocyanin gene (in this case the region from the Pisum sativum plastocyanin gene).

[5] = tested on: Nicotiana tabacum (transgenic, stig 1 D-amino acid oxidase and plastocyanin/PAT); experiment: Transgenic tobacco (stig1 D-amino acid oxidase M213R plus plastocyanin promoter PAT) sprayed with DL phosphinothricin; format: in vivo
Text: In one variant of the method, the amino acid applied is racemic DL phosphinothricin. In this case, the DNA construct used for transformation comprises, in addition to the DNA sequence encoding a D-amino acid oxidase under operable expression control of a tissue specific female floral promoter region such as ‘stig 1’, also a DNA sequence (EMBL: A02774) a ‘PAT’ gene under operable control of a promoter region such as the region 5′ of the translational start of the plastocyanin gene of the Pisum sativum plastocyanin gene (EMBL accession number X16082). For example, the construct is the same as depicted in FIG. 1 except that the DNA sequence encoding D-amino acid oxidase is site-specifically mutated so that the M213R form of the enzyme is encoded. The plastocyanin promoter region provides for preferential expression in the green tissues of the plant. […] Thus, in this variant of the example, the non-phytotoxic substance D phosphinothricin is applied in its least costly and most readily available form as the commercial herbicide DL phosphinothricin racemate.

[6] = biological target: T1, M213S (serine replacement for methionine) mutant form of R. gracilis D amino acid oxidase (Rhodotorula toruloides, UniProt P80324, M213S); experiment: Oxygen electrode assay of D-amino acid oxidase activity, M213S mutant, crude E. coli extract; format: biochemical; details: 25° C., 50 mM Mops/KOH pH 7.0, 0.01 mM FAD; ammonium salt of DL phosphinothricin; estimated enzyme purity in extract 35+/-15% of total protein
T1 construct: made in house; host or cells: E. coli BL21 DE3 (Novagen pET 24A, T7 promoter)
Text: (§1) Additionally a series of particular DNA sequences encoding particularly targeted D-amino acid oxidase enzymes are generated. In particular, genes encoding Rhodotorula gracilis D amino acid oxidase with an arginine, serine, cysteine, lysine, asparagine or alanine replacing the methionine at position 213 and/or a histidine, serine, cysteine, asparagine or alanine replacing the tyrosine at position 238. The methods used are the same as described above except that, rather than a mixture of oligonucleotides, individual oligonucleotide pairs are designed and used to effect each single or double amino acid change. Each resulting mutant D-amino acid oxidase coding sequence is cloned for (untagged) expression behind the T7 promoter in Novagen pET 24A and transformed into E. coli BL21 DE3. The cells are grown in a 1.0 l fermenter in LCM50 medium supplemented with 100 ug/ml kanamycin, induced for expression with 1 mM IPTG and harvested by low-speed centrifugation.
(§2) Approximately 7 g wet weight of cells is washed in water. The cells are resuspended in an equal volume of 50 mM/Mops/KOH buffer at pH 7.0 containing 2 mM EDTA, 2 mM DTT and 0.01 mM FAD. […] Rates of oxygen consumption (after substraction of any drift in the bases line) are measured. […]

[7] = biological target: T2, M213R (arginine replacement for methionine) mutant form of R. gracilis D amino acid oxidase (Rhodotorula toruloides, UniProt P80324, M213R); experiment: Oxygen electrode assay of D-amino acid oxidase activity, M213R mutant, crude E. coli extract; format: biochemical; details: 25° C., 50 mM Mops/KOH pH 7.0, 0.01 mM FAD; ammonium salt of DL phosphinothricin; estimated enzyme purity in extract 35+/-15% of total protein
T2 construct: made in house; host or cells: E. coli BL21 DE3 (Novagen pET 24A, T7 promoter)
Text: as §1, §2

[8] = spray, rates between 250 g/ha and 5 kg/ha

Row | SMILES | seed production after treatment [1] | viable pollen production after treatment [1] | also measured
1 | CC(C)C[C@@H](N)C(=O)O [D leucine] | relatively little or no seed | near normal levels of viable pollen | 
2 | CP(=O)(O)CC[C@@H](N)C(=O)O [D-phosphinothricin] | relatively little or no seed | near normal levels of viable pollen | oxidation of pure enantiomer in control experiments [2]: up to twice the rate that the DL is
3 | N[C@H](CC(=O)O)C(=O)O [D aspartate] | relatively little or no seed | near normal levels of viable pollen | 
4 | NC(=O)C[C@@H](N)C(=O)O [D asparagine] | relatively little or no seed | near normal levels of viable pollen | 
5 | CP(=O)(O)CCC(N)C(=O)O (stereo not drawn) [DL phosphinothricin] |  |  | reproductive tolerance to application [3]: substantially reproductively tolerant; female fertility of treated plants [4]: normal or near-normal female fertility; male fertility of treated plants [4]: conditionally male sterile; visible damage of treated plants [4]: not visibly damaged; yield of plastocyanin/PAT plants without D to L converting activity in floral tissues ([5]; no heterologous D-amino acid oxidase co-expressed in floral tissues): no significant loss of yield; reproductive tolerance to the herbicide of plants with plastocyanin promoter/PAT gene ([5]; rates in excess of 2 kg/ha): substantially complete reproductive tolerance; female fertility of treated plants [5, 8]: conditionally female sterile; male fertility of treated plants [5, 8]: normal or near-normal male fertility; visible damage of treated plants [5, 8]: not visibly damaged; rate of oxidation (oxygen consumption) [6]: ~4 nmol/min/mg of protein of crude extract; rate of oxidation (oxygen consumption) [7]: ~14 nmol/min/mg of protein of crude extract
6 | C[C@@H](N)C(=O)O [D alanine] | relatively little or no seed | near normal levels of viable pollen | 
7 | N[C@H](CCC(=O)O)C(=O)O [D glutamate] | relatively little or no seed | near normal levels of viable pollen | 
8 | CP(=O)(O)CC[C@H](N)C(=O)O [L-form, L-phosphinothricin, reference compound] |  |  | oxidation of pure enantiomer in control experiments [2]: not oxidised at all
9 | CSCC[C@@H](N)C(=O)O [D methionine] | relatively little or no seed | near normal levels of viable pollen | 
